For assay [1], the system named is subject's mood. Nature of the assay: Actimood scoring (correlation of EmoChar and IRT values). It is filed as in vivo, human. As for the experimental part: (§1) 1. Sensorial and Emotional Evaluation of Fragrance Raw Materials Each fragrance was evaluated by 30 subjects. At each appointment, the subject discovered fragrances in one sequence of four fragrances and two sequences of three fragrances separated by a 10-minute break.
(§2) For each fragrance, the subject discovered each fragrance on a card strip for 10 seconds. Between each product, a rest-period of 2 minutes was carried out during which the subject smelt their own body odour by smelling their wrist and the subject drank a little bit of water as well.
Emochar™ is a system of emotional characterization, scoring 7 main emotional dimensions from 0 to 10: • Stimulation: focus, attention, and awakening. • Relaxation: serenity, relaxation and appeasing. • Sensual: arousing, sexy and erotic. • Pleasure: liking, “gourmand” and satisfaction. • Tenderness: gentleness and softness. • Joy: excitement, fun and enthusiasm. • Self-esteem: confidence and assurance
Actimood scores are based on a correlation of EmoChar™ and IRT values. The scores are classified on a scale from 0 (low impact on subject's mood) to 3 (high impact on subject's mood).
Each score is obtained according to an algorithm, mixing verbal and non-verbal responses of volunteers to a specific product, or stimulus in a given context. The algorithm was developed from extensive field data, and in accordance with scientific literature and validated biobehavioral patterns associated to various emotional states.

The subject of assay [2] is subject's mood. Nature of the assay: Implicit response test (IRT). It is filed as in vivo, human. On the set-up: scale not given here. As for the experimental part:
as §1
During those appointments, the subjects smelt the fragrances in a random way.
as §2
The evaluation is carried out in standardized lighting conditions and under a monitored temperature (temperature 21±1.5° C.).
Implicit response tests (IRTs) are a family of tests and assess the subjects' immediate, “gut instinct” responses the fragrance raw materials.
The alleged underlying processes are based on how neurosciences describe the way our brain processes information. Indeed, our brain processes information through two systems: System 2, which is slow and processes conscious information, and System 1, which is fast and processes non-conscious information.
The IRT tests are performed at a computer, where the following words appear on the computer screen: • Energizing • Relaxing • Attractive • Sensual • Joyful • Protective • Confident • Fresh • Well-being
The subject has to click on the screen with the computer mouse to indicate their accordance or not of the word with the tested fragrance. In addition, the times to click the button are recorded.

Where [3] appears, read: relaxing and sleep enhancing mood (Composition 1, Table 3), scale 0 (low impact on subject's mood) to 3 (high impact).
Setting [4] is: ingredients of the fragrance composition conveying a fresh mood (Table 1).
Setting [5] is: ingredients of the fragrance composition conveying an attractive mood (Table 2).
Where [6] appears, read: attractive mood (Table 11), scale 0 (low impact) to 3 (high impact).
Setting [7] is: energizing mood (Table 7), scale 0 (low impact) to 3 (high impact).
Setting [8] is: fresh mood (Table 12), scale 0 (low impact) to 3 (high impact).
The mark [9] stands for this setting: joyful mood (Table 6), scale 0 (low impact) to 3 (high impact).
The mark [10] stands for this setting: well-being mood (Table 10), scale 0 (low impact) to 3 (high impact).
The mark [11] stands for this setting: sensual mood (Table 8), scale 0 (low impact) to 3 (high impact).
The mark [12] stands for this setting: self-confident mood (Table 9), scale 0 (low impact) to 3 (high impact).
Setting [13] is: relaxing mood (Composition 2, Table 4), scale 0 (low impact) to 3 (high impact).
The mark [14] stands for this setting: protective mood (Table 5), scale 0 (low impact) to 3 (high impact).

We go through 37 compounds from US20250302728A1, “FRAGRANCE COMPOSITIONS AND PRODUCTS CONVEYING A POSITIVE MOOD” (SYMRISE AG, priority 2022, published 2025).

As to `CC(C)CCC1CCC(O)CC1` (stereo not drawn) [SYMROSE ®, 4-Isopentylcyclohexanol], the Actimood score in the assay on subject's mood [1] (setting [3]) came to 2.
For `C=CC(C)(O)CCC=C(C)CC` (mixture of isomers) [ETHYL LINALOOL, (6E)-3,7-dimethylnona-1,6-dien-3-ol], the “IRT Score” value with subject's mood [2] (setting [4]) is on record as 1682; with subject's mood [2] (setting [5]) it was 565. The Actimood score with subject's mood [1] (setting [6]) was found to be 2; in the assay on subject's mood [1] (setting [7]) it was 1; with subject's mood [1] (setting [8]) it was 3; with subject's mood [1] (setting [9]) it was 2.
In the case of `CC(C=O)Cc1ccc2c(c1)OCO2` (stereo not drawn) [3-(1,3-benzodioxol-5-yl)-2-methyl-propanal], the “IRT Score” value in the assay with subject's mood [2] (setting [4]) came to 742.
The compound `CC/C=C/CCO` [HEXENOL CIS-3 10% DPG, Hexenol] registered an Actimood score in the assay on subject's mood [1] (setting [10]) of 0.
For `C=CC(C)CCCC(C)(C)O` (stereo not drawn) [DIHYDRO MYRCENOL, 2,6-dimethyloct-7-en-2-ol], the “IRT Score” value with subject's mood [2] (setting [5]) was 1599. In addition, the Actimood score with subject's mood [1] (setting [6]), with subject's mood [1] (setting [7]) and in the assay with subject's mood [1] (setting [11]) was 3 in each case.
`CC/C=C\CCOC(C)=O` [HEXENYL ACETATE CIS-3 10% DPG, Hexenyl acetat]: the Actimood score in the assay with subject's mood [1] (setting [10]) came to 0.
Take `CCCCCCC1OC(=O)CC1C` (stereo not drawn) [APRIFLOREN ®, 5-Hexyldihydro-4-methylfuran-2(3H)-one]: the Actimood score with subject's mood [1] (setting [9]) and in the assay on subject's mood [1] (setting [12]) was 2 each time.
As for `CC(=O)/C=C/C1C(C)=CCCC1(C)C` (stereo not drawn) [IONONE ALPHA, (E)-4-(2,6,6-trimethylcyclohex-2-en-1-yl)but-3-en-2-one], the Actimood score with subject's mood [1] (setting [13]) is 3; with subject's mood [1] (setting [12]) it was 1.
Regarding `CCCCC[C@@H]1C(=O)CC[C@H]1CC(=O)OC` (racemic) [HEDIONE, methyl-2-[RAC-(1S,2S)-3-oxo-2-pentyl-cyclopentyl]acetate], the Actimood score with subject's mood [1] (setting [8]) was determined as 2; in the assay with subject's mood [1] (setting [9]) it was 0; in the assay with subject's mood [1] (setting [3]), 2; in the assay on subject's mood [1] (setting [10]), 0.
Turning to `COC(OC)C(C)(C)CC=C(C)C` [AMAROCIT ®, 6,6-Dimethoxy-2,5,5-trimethylhex-2-ene], the “IRT Score” value in the assay on subject's mood [2] (setting [4]) amounted to 1763. Besides, the Actimood score in the assay with subject's mood [1] (setting [7]) and with subject's mood [1] (setting [8]) was 3 each time.
As for `CCc1ccc(CC(C)(C)C=O)cc1` [FLORALOZONE, 3-(4-ethylphenyl)-2,2-dimethylpropanal], in the assay with subject's mood [1] (setting [8]), the Actimood score amounted to 3.
As to `CC(C)(C)c1ccc(CCC=O)cc1` [BOURGEONAL, 3-(4-tert-butylphenyl)propanal], in the assay on subject's mood [2] (setting [5]), the “IRT Score” value is recorded as 1045. In addition, the Actimood score is listed as 3 in the assay with subject's mood [1] (setting [6]), 3 in the assay on subject's mood [1] (setting [13]) and 2 in the assay with subject's mood [1] (setting [12]).
As for `CC(C)C1CC=C(CCC=O)CC1` (single isomer, unassigned; (+)) [LILYBELLE ®, (+)-3-(4-Isopropylcyclohexen-1-yl)propanal], the Actimood score in the assay on subject's mood [1] (setting [8]) came to 3; in the assay on subject's mood [1] (setting [10]), 0.
`CCCCCCCC1CCC(=O)O1` (stereo not drawn) [ALDEHYDE C14 SO-CALLED, 5-heptyltetrahydrofuran-2-one]: the Actimood score in the assay with subject's mood [1] (setting [12]) came to 2.
Take `OCCc1ccccc1` [PHENYLETHYL ALCOHOL BA FREE, 2-phenylethanol]: the values for the Actimood score with subject's mood [1] (setting [3]) and with subject's mood [1] (setting [12]) were 2 and 1, respectively.
Regarding `CC(C)=CCC/C(C)=C/C=O` [CITRAL FF, (2E)-3,7-Dimethylocta-2,6-dienal], the “IRT Score” value in the assay on subject's mood [2] (setting [4]) amounted to 2393. Moreover, the Actimood score with subject's mood [1] (setting [7]) and in the assay on subject's mood [1] (setting [8]) was 3 in each case.
As to `COC(=O)c1c(C)cc(O)c(C)c1O` [EVERNYL 10% DPG, Methyl-2,4-dihydroxy-3,6-dimethyl-benzoate], the Actimood score with subject's mood [1] (setting [3]) was found to be 1.
With `CCCC(C)C(=O)OCC` (stereo not drawn) [MANZANATE, ethyl-2-methylpentanoate], the Actimood score in the assay with subject's mood [1] (setting [9]) was found to be 3.
Regarding `CCCCCCOC(C)=O` [HEXYL ACETATE, hexyl acetate], the Actimood score in the assay on subject's mood [1] (setting [7]) is reported as 1; in the assay with subject's mood [1] (setting [9]) it was 2.
Turning to `CC(=O)C1(C)CC2=C(CCCC2(C)C)CC1C` (stereo not drawn) [ISO E SUPER, 1-[2,3,8,8-tetramethyl-1,3,4,5,6,7-hexanhydronaphthalen-2-yl]ethanone], the Actimood score in the assay on subject's mood [1] (setting [9]), with subject's mood [1] (setting [11]) and in the assay with subject's mood [1] (setting [10]) was 2 throughout.
`CC(=O)C1CC/C(C)=C/CC/C(C)=C/C/C=C/1C` (stereo not drawn) [TRIMOFIX O, 1-[(2E,5E,9E)-2,6,10-trimethylcyclododeca-2,5,9-trien-1-yl]ethanone] displayed an Actimood score in the assay with subject's mood [1] (setting [14]) of 2.
With `CC1COCc2cc3c(cc21)C(C)(C)C(C)C3(C)C` (stereo not drawn) [GALAXOLIDE PURE, 4,6,6,7,8,8-hexamethyl-1,3,4,7-tetrahydrocyclopenta[G]isochromene], the Actimood score in the assay with subject's mood [1] (setting [14]) is 2; in the assay with subject's mood [1] (setting [13]) it was 3.
In the case of `CC1=CC(C)C(C=O)CC1` (stereo not drawn) [VERTOCITRAL, 2,4-Dimethylcyclohex-3-ene-1-carbaldehyde], the Actimood score is on record as 1 in the assay on subject's mood [1] (setting [7]) and 0 in the assay on subject's mood [1] (setting [10]).
In the case of `COC(=O)c1ccccc1N` [METHYL ANTHRANILATE, Methyl anthranilate], the Actimood score in the assay on subject's mood [1] (setting [12]) amounted to 0.
`CC(=O)OC1CCC(C(C)(C)C)CC1` (stereo not drawn) [ORYCLON HC, (4-tert-butylcyclohexyl) acetate]: the Actimood score with subject's mood [1] (setting [3]) turned out to be 1.
In the case of `CC(=O)/C=C/C1=C(C)CCCC1(C)C` [IONONE BETA, (E)-4-(2,6,6-trimethylcyclohexen-1-yl)but-3-en-2-one], the Actimood score with subject's mood [1] (setting [9]) and with subject's mood [1] (setting [10]) was 3 in each case.
`C=CCCCCOC(=O)C(C)CC` (stereo not drawn) [FRUCTATE ®, Hex-5-enyl 2-methylbutanoate] had an Actimood score in the assay on subject's mood [1] (setting [11]) of 0.
On to `Cc1cccc(CC(C)(C)CO)c1` [MAJANTOL ®, beta,beta-3-Trimethyl-benzenepropanol], for which the Actimood score in the assay with subject's mood [1] (setting [12]) and in the assay with subject's mood [1] (setting [11]) was 2 each time.
`O=C(OCc1ccccc1)c1ccccc1O` [BENZYL SALICYLATE, benzyl 2-hydroxybenzoate] yielded an Actimood score with subject's mood [1] (setting [12]) of 1.
In the assay with subject's mood [1] (setting [9]), `COc1ccc(CCC(C)=O)cc1` [FRAMBINON ®, Methoxyphenylbutanone] returned an Actimood score of 3.
In turn, `O=Cc1ccc2c(c1)OCO2` [HELIOTROPIN, 1,3-benzodioxole-5-carbaldehyde] had an Actimood score in the assay with subject's mood [1] (setting [10]) of 2.
Regarding `CC/C=C\CCOC(=O)OC` [LEAFOVERT ®, (Z)-Hex-3-en-1-yl methyl carbonate], the Actimood score is reported as 3 in the assay on subject's mood [1] (setting [9]), 0 with subject's mood [1] (setting [12]) and 2 in the assay on subject's mood [1] (setting [10]).
With `O=C1CCCCCCCC=CCCCCCCO1` [AMBRETTOLIDE HC SUPREME, Oxacycloheptadec-10-en-2-one], the Actimood score in the assay with subject's mood [1] (setting [3]) is recorded as 2.
Take `CCCCCCCCC1CCC(=O)O1` (stereo not drawn) [DODECALACTONE GAMMA 10% DPG, gamma-Dodecalactone]: the Actimood score in the assay on subject's mood [1] (setting [3]) is 1.
For the compound `CCC(=O)OCC(C)(C)OC(C)C1CCCC(C)(C)C1` (stereo not drawn) [HELVETOLIDE, [2-[1-(3,3-dimethylcyclohexyl)ethoxy]-2-methyl-propyl]propanoate], the Actimood score with subject's mood [1] (setting [14]) came to 2; in the assay on subject's mood [1] (setting [3]) it was 3; in the assay with subject's mood [1] (setting [13]), 3; in the assay on subject's mood [1] (setting [12]), 2.
Regarding `CC(C)=CCCC(C)CCO` (stereo not drawn) [CITRONELLOL 950, 3,7-dimethyloct-6-en-1-ol], the Actimood score with subject's mood [1] (setting [12]) is on record as 1.
For the compound `C=C1CCC=C(C)CCC2C1CC2(C)C` (stereo not drawn) [CARYOPHYLLENE NAT. RECT., 4,11,11-trimethyl-8-methylene-bicyclo[7.2.0]undec-4-ene], the Actimood score in the assay with subject's mood [1] (setting [13]) and with subject's mood [1] (setting [12]) was 3 throughout.
